The structures appear in SMILES notation.

Assay [1] relates to C2C12 muscle cells. The assay can be described thus: Expression of mitochondria-associated genes at the protein level by western blotting in differentiated C2C12 muscle cells. Particulars: coumestrol for 24 hours, C2C12 differentiated for a week, FIG. 2. In kind it is cell-based, mouse. Also on record: dose or concentration left out as unconfirmed. As for the experimental part:
(§1) C2C12 muscle cells derived from mouse (mouse myoblasts, ATCC) were differentiated for a week and then treated with […] coumestrol for 24 hours. Then, the expression of mitochondria-associated genes was confirmed at the protein level by western blotting. The tested genes were PGC1 which induces mitochondria biosynthesis and NDUFA9 and ATP5a which are proteins that constitute the mitochondrial electron transport chain.

In the next assay the target is T1, SIRT1 (Homo sapiens, UniProt Q96EB6).
T1 construct: Biomol
T1 sequence (Q96EB6 1-747): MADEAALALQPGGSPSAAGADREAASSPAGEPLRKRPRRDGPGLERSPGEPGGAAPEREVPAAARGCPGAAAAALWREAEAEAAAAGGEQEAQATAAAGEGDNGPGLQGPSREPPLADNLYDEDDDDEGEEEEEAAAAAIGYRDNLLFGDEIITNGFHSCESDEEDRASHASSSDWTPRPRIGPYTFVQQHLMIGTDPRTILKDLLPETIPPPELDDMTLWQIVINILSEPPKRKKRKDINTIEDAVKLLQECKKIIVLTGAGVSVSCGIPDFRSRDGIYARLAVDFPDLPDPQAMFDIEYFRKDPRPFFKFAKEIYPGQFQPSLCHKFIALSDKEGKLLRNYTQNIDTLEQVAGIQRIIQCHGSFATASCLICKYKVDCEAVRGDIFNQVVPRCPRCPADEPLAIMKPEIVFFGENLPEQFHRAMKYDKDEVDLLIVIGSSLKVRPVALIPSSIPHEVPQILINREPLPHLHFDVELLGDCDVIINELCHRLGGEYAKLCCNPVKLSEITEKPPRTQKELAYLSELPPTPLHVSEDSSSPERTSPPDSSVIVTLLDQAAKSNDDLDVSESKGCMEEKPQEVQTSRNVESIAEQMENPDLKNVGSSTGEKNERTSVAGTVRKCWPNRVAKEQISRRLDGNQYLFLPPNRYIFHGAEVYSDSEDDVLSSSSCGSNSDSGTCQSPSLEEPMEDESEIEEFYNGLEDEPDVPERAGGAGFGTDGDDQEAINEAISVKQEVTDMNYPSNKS
The assay is described as follows: SIRT1 activity assay kit (Biomol), SIRT1 activating effect. The class given is biochemical. The following applies: FIG. 1. On the procedure:
It was tested whether coumestrol can activate SIRT1 using the SIRT1 activity assay kit (Biomol). Cells were treated with 10 μM coumestrol. 50 µM resveratrol (Res), which is known to activate SIRT1, was used as positive control and 1 mM nicotinamide (NAM), which is an inhibitor of SIRT1, was used as negative control.

Assay [2] concerns C2C12 muscle cells. The assay is described as follows: Quantity of mitochondria in cells by fluorescence after MitoTracker Green staining. In kind it is cell-based, mouse. The following applies: coumestrol-treated C2C12 muscle cells, FIG. 3. On the procedure: as §1
Also, the quantity of mitochondria in cells was measured by fluorescence after staining with MitoTracker Green (Invitrogen).

In the case of `O=c1oc2cc(O)ccc2c2oc3cc(O)ccc3c12` [coumestrol, 3,9-dihydroxy-6H-benzofuro(3,2-c)(1)benzopyran-6-one], the “expression of mitochondria-associated genes (PGC1, NDUFA9, ATP5a) at the protein level vs untreated group” value in the assay on C2C12 muscle cells [1] is on record as “remarkable increase”. Besides, on SIRT1 (10 μM coumestrol vs 50 µM resveratrol), the “SIRT1 activating effect compared with resveratrol (positive control)” value is “comparable to that of resveratrol”. For the same molecule, the “SIRT1 activity relative to the untreated group” value at SIRT1 (10 μM coumestrol) is listed as “increased”. Moreover, in the assay on C2C12 muscle cells [2], the “quantity of mitochondria in cells vs untreated group” value is “remarkable increase”.

The values are drawn from patent publication US20130090377A1, “COMPOSITION COMPRISING COUMESTROL OR A BEAN EXTRACT CONTAINING COUMESTROL” (AMOREPACIFIC CORPORATION, priority 2010, published 2013).
